Legend:
ErbB2 WT = ErbB2 WT (Homo sapiens (Human), UniProt P04626); assay: ErbB Enzyme Assay (HTRF KinEASE-TK), Assay 2; assay type: biochemical
EGFR wild type (EGFR WT) = EGFR wild type (EGFR WT) (Homo sapiens (Human), UniProt P00533); assay: Cellular Phosphorylation Assay, Assay 5 (EGF-stimulated EGFR phosphorylation, NIH 3T3 cells); assay type: cell-based
[1] = molecular target: ErbB2 with Exon 20 YVMA insertion (HER2-YVMA) (Homo sapiens (Human), UniProt P04626, INS775YVMA); assay: Cellular Phosphorylation Assay, Assay 4 (constitutive ErbB2 phosphorylation, NIH 3T3 cells); assay type: cell-based
Sequence of ErbB2 with Exon 20 YVMA insertion (HER2-YVMA) (P04626 other isoform, or with tags, fused parts or gaps ins YVMA behind 775): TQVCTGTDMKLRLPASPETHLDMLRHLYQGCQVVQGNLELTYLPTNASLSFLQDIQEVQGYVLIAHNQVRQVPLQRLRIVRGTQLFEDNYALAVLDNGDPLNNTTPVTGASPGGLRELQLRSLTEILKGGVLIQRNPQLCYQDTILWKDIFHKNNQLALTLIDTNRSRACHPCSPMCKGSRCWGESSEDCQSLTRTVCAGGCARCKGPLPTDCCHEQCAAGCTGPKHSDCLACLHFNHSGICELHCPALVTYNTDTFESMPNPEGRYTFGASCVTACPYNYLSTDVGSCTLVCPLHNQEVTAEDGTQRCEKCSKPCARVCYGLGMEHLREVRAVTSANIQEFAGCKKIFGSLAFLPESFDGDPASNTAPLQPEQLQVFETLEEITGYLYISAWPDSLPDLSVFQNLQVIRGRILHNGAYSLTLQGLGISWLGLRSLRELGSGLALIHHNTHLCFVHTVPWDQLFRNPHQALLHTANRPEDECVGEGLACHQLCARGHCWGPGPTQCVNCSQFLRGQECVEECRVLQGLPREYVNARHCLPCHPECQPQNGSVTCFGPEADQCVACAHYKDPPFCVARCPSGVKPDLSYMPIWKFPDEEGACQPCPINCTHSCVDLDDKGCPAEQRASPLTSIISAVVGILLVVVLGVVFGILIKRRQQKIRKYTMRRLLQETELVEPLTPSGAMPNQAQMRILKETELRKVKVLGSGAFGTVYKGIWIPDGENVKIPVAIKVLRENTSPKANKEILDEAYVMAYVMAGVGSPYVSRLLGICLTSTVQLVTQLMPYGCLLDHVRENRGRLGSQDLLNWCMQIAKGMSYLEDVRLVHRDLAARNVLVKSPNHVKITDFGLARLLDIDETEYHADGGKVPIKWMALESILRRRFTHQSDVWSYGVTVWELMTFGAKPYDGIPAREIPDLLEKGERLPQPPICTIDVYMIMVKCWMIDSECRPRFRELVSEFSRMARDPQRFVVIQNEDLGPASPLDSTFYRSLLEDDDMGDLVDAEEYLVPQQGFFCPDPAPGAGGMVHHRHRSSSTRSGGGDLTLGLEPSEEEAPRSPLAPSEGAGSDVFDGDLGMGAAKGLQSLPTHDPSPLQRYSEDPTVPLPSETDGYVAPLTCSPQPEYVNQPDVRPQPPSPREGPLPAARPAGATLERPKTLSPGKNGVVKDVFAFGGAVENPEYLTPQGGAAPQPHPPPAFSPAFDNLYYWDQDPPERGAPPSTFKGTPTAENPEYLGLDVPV

EGFR = EGFR (Homo sapiens (Human), UniProt P00533); assay: ErbB Enzyme Assay (HTRF KinEASE-TK), Assay 3; assay type: biochemical
Sequence of EGFR (P00533 25-1210): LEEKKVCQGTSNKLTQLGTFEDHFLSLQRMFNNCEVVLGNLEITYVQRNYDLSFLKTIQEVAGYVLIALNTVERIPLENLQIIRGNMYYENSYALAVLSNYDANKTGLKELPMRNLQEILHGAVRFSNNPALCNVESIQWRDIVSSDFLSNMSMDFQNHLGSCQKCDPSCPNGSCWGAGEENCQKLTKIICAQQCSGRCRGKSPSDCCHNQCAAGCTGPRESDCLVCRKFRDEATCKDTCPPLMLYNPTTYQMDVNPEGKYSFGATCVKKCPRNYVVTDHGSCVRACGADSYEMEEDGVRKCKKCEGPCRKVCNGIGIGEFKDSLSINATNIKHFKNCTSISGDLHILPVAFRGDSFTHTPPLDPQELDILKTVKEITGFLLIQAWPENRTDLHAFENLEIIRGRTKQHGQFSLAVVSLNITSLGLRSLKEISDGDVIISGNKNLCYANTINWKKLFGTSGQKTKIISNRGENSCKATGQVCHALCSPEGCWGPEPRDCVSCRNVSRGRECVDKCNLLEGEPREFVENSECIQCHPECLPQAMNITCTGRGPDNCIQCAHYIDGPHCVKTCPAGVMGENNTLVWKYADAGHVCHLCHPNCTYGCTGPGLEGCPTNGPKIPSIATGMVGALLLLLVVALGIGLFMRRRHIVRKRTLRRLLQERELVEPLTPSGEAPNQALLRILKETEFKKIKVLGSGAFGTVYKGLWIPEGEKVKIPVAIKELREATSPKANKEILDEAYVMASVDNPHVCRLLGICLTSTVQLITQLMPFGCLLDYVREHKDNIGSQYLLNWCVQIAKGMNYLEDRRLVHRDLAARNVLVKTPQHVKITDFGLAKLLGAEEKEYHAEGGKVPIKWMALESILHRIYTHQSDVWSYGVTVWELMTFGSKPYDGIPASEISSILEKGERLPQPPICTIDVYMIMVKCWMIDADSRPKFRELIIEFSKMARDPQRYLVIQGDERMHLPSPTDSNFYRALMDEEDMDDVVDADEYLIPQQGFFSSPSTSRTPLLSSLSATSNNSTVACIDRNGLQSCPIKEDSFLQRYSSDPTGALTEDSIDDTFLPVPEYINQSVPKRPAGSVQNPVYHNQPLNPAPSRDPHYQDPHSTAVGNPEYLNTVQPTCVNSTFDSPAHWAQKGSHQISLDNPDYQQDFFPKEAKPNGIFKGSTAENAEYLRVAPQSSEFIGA

[2] = EGF-stimulated EGFR WT phosphorylation
[3] = cellular EGFR WT phosphorylation, EGF-stimulated
[4] = cellular ErbB2 YVMA phosphorylation

Sequence of EGFR wild type (EGFR WT) (P00533 25-1210): as above
Sequence of ErbB2 WT (P04626 23-1255): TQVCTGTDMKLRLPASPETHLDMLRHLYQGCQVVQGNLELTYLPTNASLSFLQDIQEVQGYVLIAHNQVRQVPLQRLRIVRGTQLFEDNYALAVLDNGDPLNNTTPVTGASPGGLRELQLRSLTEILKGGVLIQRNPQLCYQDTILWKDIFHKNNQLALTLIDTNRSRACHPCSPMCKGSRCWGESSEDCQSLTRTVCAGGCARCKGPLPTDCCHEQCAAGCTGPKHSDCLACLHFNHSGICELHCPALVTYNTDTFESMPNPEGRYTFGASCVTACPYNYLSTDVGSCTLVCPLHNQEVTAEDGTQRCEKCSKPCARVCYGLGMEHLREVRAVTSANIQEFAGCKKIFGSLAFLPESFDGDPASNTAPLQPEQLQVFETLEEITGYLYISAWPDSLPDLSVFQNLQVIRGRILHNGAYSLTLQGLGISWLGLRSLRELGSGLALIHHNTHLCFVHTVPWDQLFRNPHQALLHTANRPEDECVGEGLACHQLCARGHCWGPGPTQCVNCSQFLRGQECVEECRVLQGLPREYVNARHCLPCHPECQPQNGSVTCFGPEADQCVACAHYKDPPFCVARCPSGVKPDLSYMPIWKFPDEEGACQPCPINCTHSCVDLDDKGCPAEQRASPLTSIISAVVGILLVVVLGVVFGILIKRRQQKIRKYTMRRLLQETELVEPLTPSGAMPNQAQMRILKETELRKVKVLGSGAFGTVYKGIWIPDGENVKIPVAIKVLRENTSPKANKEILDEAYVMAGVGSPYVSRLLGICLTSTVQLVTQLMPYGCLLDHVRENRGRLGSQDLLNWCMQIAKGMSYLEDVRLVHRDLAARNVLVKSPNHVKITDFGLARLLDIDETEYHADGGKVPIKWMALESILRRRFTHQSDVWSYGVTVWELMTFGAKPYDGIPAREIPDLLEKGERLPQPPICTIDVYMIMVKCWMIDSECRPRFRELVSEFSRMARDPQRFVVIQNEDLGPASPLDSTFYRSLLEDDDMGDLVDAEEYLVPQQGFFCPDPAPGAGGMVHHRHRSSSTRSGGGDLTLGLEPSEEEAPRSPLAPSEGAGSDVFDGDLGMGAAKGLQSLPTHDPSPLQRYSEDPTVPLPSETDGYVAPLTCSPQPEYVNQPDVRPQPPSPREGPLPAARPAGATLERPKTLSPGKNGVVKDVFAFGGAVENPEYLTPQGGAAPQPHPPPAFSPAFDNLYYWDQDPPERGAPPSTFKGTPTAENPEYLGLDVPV

Compound	IC50 (ErbB2 WT; ErbB2 WT enzyme) [nM]	IC50 (EGFR wild type (EGFR WT); [2]) [nM]	IC50 ([1]; ErbB2 YVMA phosphorylation) [nM]	IC50 (EGFR; EGFR enzyme) [nM]	IC50 (ErbB2 WT; ErbB2 WT enzyme assay) [nM]	IC50 (EGFR wild type (EGFR WT); [3]) [nM]	IC50 [1, 4] [nM]	IC50 (EGFR; EGFR enzyme assay) [nM]
C=CC(=O)N1CCCC(c2ccc3ncnc(Nc4ccc(Oc5ccn6ncnc6c5)c(C)c4F)c3n2)C1 (stereo not drawn) [Example 198, 1-(3-(4-((4-([1,2,4]triazolo[1,5-a]pyridin-7-yloxy)-2-fluoro-3-methylphenyl)amino)pyrido[3,2-d]pyrimidin-6-yl)piperidin-1-yl)prop-2-en-1-one]	24.2	809	17	342				
C=CC(=O)N1C[C@H]2C[C@H](c3ccc4ncnc(Nc5ccc(Oc6ccn7ncnc7c6)c(C)c5F)c4n3)C[C@H]2C1 [Example 200, 1-((3aR,5s,6aS)-5-(4-((4-([1,2,4]triazolo[1,5-a]pyridin-7-yloxy)-2-fluoro-3-methylphenyl)amino)pyrido[3,2-d]pyrimidin-6-yl)hexahydrocyclopenta[c]pyrrol-2(1H)-yl)prop-2-en-1-one]	16.2	≥ 5000	83.5	2780				
C=CC(=O)N1C[C@H]2C[C@H](c3ccc4ncnc(Nc5cc(C)c(Oc6ccn7ncnc7c6)cc5F)c4n3)C[C@H]2C1 [Example 201, 1-((3aR,5s,6aS)-5-(4-((4-([1,2,4]triazolo[1,5-a]pyridin-7-yloxy)-2-fluoro-5-methylphenyl)amino)pyrido[3,2-d]pyrimidin-6-yl)hexahydrocyclopenta[c]pyrrol-2(1H)-yl)prop-2-en-1-one]	68.1	≥ 5000	213	9450				
C=CC(=O)N1[C@@H]2CC[C@H]1C[C@@H](c1ccc3ncnc(Nc4cc(C)c(Oc5ccn6ncnc6c5)cc4F)c3n1)C2 [Example 206, 1-((1R,3r,5S)-3-(4-((4-([1,2,4]triazolo[1,5-a]pyridin-7-yloxy)-2-fluoro-5-methylphenyl)amino)pyrido[3,2-d]pyrimidin-6-yl)-8-azabicyclo[3.2.1]octan-8-yl)prop-2-en-1-one]	151	≥ 5000	115	4770				
C=C(F)C(=O)N1[C@@H]2CC[C@H]1C[C@@H](c1ccc3ncnc(Nc4cc(C)c(Oc5ccn6ncnc6c5)cc4F)c3n1)C2 [Example 207, 1-((1R,3r,5S)-3-(4-((4-([1,2,4]triazolo[1,5-a]pyridin-7-yloxy)-2-fluoro-5-methylphenyl)amino)pyrido[3,2-d]pyrimidin-6-yl)-8-azabicyclo[3.2.1]octan-8-yl)-2-fluoroprop-2-en-1-one]	150	≥ 5000	685	≥ 10000				
CC#CC(=O)N1[C@@H]2CC[C@H]1C[C@@H](c1ccc3ncnc(Nc4cc(C)c(Oc5ccn6ncnc6c5)cc4F)c3n1)C2 [Example 208, 1-((1R,3r,5S)-3-(4-((4-([1,2,4]triazolo[1,5-a]pyridin-7-yloxy)-2-fluoro-5-methylphenyl)amino)pyrido[3,2-d]pyrimidin-6-yl)-8-azabicyclo[3.2.1]octan-8-yl)but-2-yn-1-one]	172	≥ 5000	328	≥ 10000				
C=CC(=O)N1[C@@H]2CC[C@H]1C[C@@H](c1ccc3ncnc(Nc4ccc(Oc5ccn6ncnc6c5)c(C)c4)c3n1)C2 [Example 215, 1-((1R,3r,5S)-3-(4-((4-([1,2,4]triazolo[1,5-a]pyridin-7-yloxy)-3-methylphenyl)amino)pyrido[3,2-d]pyrimidin-6-yl)-8-azabicyclo[3.2.1]octan-8-yl)prop-2-en-1-one]	29.5	≥ 5000	29.5	3310				
C=CC(=O)N1[C@@H]2CC[C@H]1C[C@@H](c1ccc3ncnc(Nc4cc(C)c(Oc5cnc6c(c5)ncn6C)cc4F)c3n1)C2 [Example 226, 1-((1R,3r,5S)-3-(4-((2-fluoro-5-methyl-4-((3-methyl-3H-imidazo[4,5-b]pyridin-6-yl)oxy)phenyl)amino)pyrido[3,2-d]pyrimidin-6-yl)-8-azabicyclo[3.2.1]octan-8-yl)prop-2-en-1-one]	310	≥ 5000	37.5	≥ 10000				
C=CC(=O)N1C2CCC1CN(c1ccc3ncnc(Nc4ccc(Oc5ccn6ncnc6c5)c(Cl)c4F)c3n1)C2 [Example 238, 1-(3-(4-((4-([1,2,4]triazolo[1,5-a]pyridin-7-yloxy)-3-chloro-2-fluorophenyl)amino)pyrido[3,2-d]pyrimidin-6-yl)-3,8-diazabicyclo[3.2.1]octan-8-yl)prop-2-en-1-one]	11.7	90.3	5.5	114				
CC#CC(=O)N1C2CCC1CN(c1ccc3ncnc(Nc4ccc(Oc5ccn6ncnc6c5)c(C)c4F)c3n1)C2 [Example 240, 1-(3-(4-((4-([1,2,4]triazolo[1,5-a]pyridin-7-yloxy)-2-fluoro-3-methylphenyl)amino)pyrido[3,2-d]pyrimidin-6-yl)-3,8-diazabicyclo[3.2.1]octan-8-yl)but-2-yn-1-one]	143	2020	92.4	4900				
C=CC(=O)N1C2CC1CN(c1ccc3ncnc(Nc4cc(Cl)c(Oc5cnc6c(c5)ncn6C)cc4F)c3n1)C2 [Example 241, 1-(3-(4-((5-chloro-2-fluoro-4-((3-methyl-3H-imidazo[4,5-b]pyridin-6-yl)oxy)phenyl)amino)pyrido[3,2-d]pyrimidin-6-yl)-3,6-diazabicyclo[3.1.1]heptan-6-yl)prop-2-en-1-one]	354	≥ 5000	22.2	≥ 10000				
C=CC(=O)N1CC2CCC(C1)N2c1ccc2ncnc(Nc3ccc(Oc4cnc5c(c4)ncn5C)c(C)c3F)c2n1 [Example 244, 1-(8-(4-((2-fluoro-3-methyl-4-((3-methyl-3H-imidazo[4,5-b]pyridin-6-yl)oxy)phenyl)amino)pyrido[3,2-d]pyrimidin-6-yl)-3,8-diazabicyclo[3.2.1]octan-3-yl)prop-2-en-1-one]	46.4	317	16.7	178				

Other lines, results leading:

IC50 (ErbB2 WT; ErbB2 WT enzyme) [nM]	IC50 (EGFR wild type (EGFR WT); [2]) [nM]	IC50 ([1]; ErbB2 YVMA phosphorylation) [nM]	IC50 (EGFR; EGFR enzyme) [nM]	IC50 (ErbB2 WT; ErbB2 WT enzyme assay) [nM]	IC50 (EGFR wild type (EGFR WT); [3]) [nM]	IC50 [1, 4] [nM]	IC50 (EGFR; EGFR enzyme assay) [nM]	Compound
13.2	2940	20.8	900					C=CC(=O)N1CCCCC(c2ccc3ncnc(Nc4ccc(Oc5ccn6ncnc6c5)c(C)c4)c3n2)C1 (stereo not drawn) [Example 204, 1-(3-(4-((4-([1,2,4]triazolo[1,5-a]pyridin-7-yloxy)-3-methylphenyl)amino)pyrido[3,2-d]pyrimidin-6-yl)azepan-1-yl)prop-2-en-1-one]
28.5	≥ 5000	78	2690					C=CC(=O)N1C[C@H]2CC[C@@H](C1)[C@@H]2c1ccc2ncnc(Nc3ccc(Oc4ccn5ncnc5c4)c(C)c3)c2n1 [Example 221, 1-((1R,5S,8r)-8-(4-((4-([1,2,4]triazolo[1,5-a]pyridin-7-yloxy)-3-methylphenyl)amino)pyrido[3,2-d]pyrimidin-6-yl)-3-azabicyclo[3.2.1]octan-3-yl)prop-2-en-1-one]
48.9	≥ 5000	145	1960					C=CC(=O)N1C[C@H]2CC[C@@H](C1)[C@@H]2c1ccc2ncnc(Nc3ccc(Oc4ccn5ncnc5c4)c(C)c3F)c2n1 [Example 223, 1-((1R,5S,8r)-8-(4-((4-([1,2,4]triazolo[1,5-a]pyridin-7-yloxy)-2-fluoro-3-methylphenyl)amino)pyrido[3,2-d]pyrimidin-6-yl)-3-azabicyclo[3.2.1]octan-3-yl)prop-2-en-1-one]
10	148	8.7	70.5					C=CC(=O)N1C[C@H]2C[C@@H]1[C@H](c1ccc3ncnc(Nc4ccc(Oc5ccn6ncnc6c5)c(Cl)c4F)c3n1)C2 [Example 231, 1-((1R,4R,6R)-6-(4-((4-([1,2,4]triazolo[1,5-a]pyridin-7-yloxy)-3-chloro-2-fluorophenyl)amino)pyrido[3,2-d]pyrimidin-6-yl)-2-azabicyclo[2.2.1]heptan-2-yl)prop-2-en-1-one]
1330	≥ 5000	256	≥ 10000					C=CC(=O)N1CC[C@H]2C[C@@H]1CN2c1ccc2ncnc(Nc3ccc(Oc4cnc5c(c4)ncn5C)c(C)c3F)c2n1 [Example 237, 1-((1R,5S)-6-(4-((2-fluoro-3-methyl-4-((3-methyl-3H-imidazo[4,5-b]pyridin-6-yl)oxy)phenyl)amino)pyrido[3,2-d]pyrimidin-6-yl)-2,6-diazabicyclo[3.2.1]octan-2-yl)prop-2-en-1-one]
184	3460	95.6	4430					C=CC(=O)N1CCN(c2ccc3ncnc(Nc4ccc(Oc5ccn6ncnc6c5)c(C(F)(F)F)c4)c3n2)CC1(C)C [Example 242, 1-(4-(4-((4-([1,2,4]triazolo[1,5-a]pyridin-7-yloxy)-3-(trifluoromethyl)phenyl)amino)pyrido[3,2-d]pyrimidin-6-yl)-2,2-dimethylpiperazin-1-yl)prop-2-en-1-one]
338	666	50.2	1210					C=CC(=O)N1CCN(c2ccc3ncnc(Nc4ccc(Oc5ccc6scnc6c5)c(C)c4F)c3n2)CC1(C)C [Example 243, 1-(4-(4-((4-(benzo[d]thiazol-5-yloxy)-2-fluoro-3-methylphenyl)amino)pyrido[3,2-d]pyrimidin-6-yl)-2,2-dimethylpiperazin-1-yl)prop-2-en-1-one]
				27.9	3200	9	4120	C=CC(=O)N1CCN(c2ccc3ncnc(Nc4ccc(Oc5cnc6c(c5)ncn6C)c(C)c4)c3n2)CC1(C)C [Example 250]
				162	≥ 5000	31	≥ 10000	C=CC(=O)N1CCN(c2ccc3ncnc(Nc4ccc(Oc5ccc6c(c5)ncn6C)c(C)c4F)c3n2)C[C@H]1C(C)C [Example 253]

Source: patent US12447153B2, “HER2 mutation inhibitors” (Array BioPharma Inc., priority 2021, dated 2025)
